Data from the NIST ThermoML archive (doi:10.1021/je060271a).

Details: 303.14 K, Liquid, Vibrating tube method

CCCCCCC(=O)OCC(COC(=O)CCCCCC)(COC(=O)CCCCCC)COC(=O)CCCCCC [pentaerythritol tetraheptanoate]
Details | mass density [kg/m3]
8357.2 kPa | 975.8
8381 kPa | 975.9
8405.1 kPa | 976
8433.4 kPa | 976
8458.1 kPa | 975.9
8483.1 kPa | 976.1
8509.4 kPa | 976
8533.9 kPa | 976.1
8563.4 kPa | 976
8587.9 kPa | 976.2
8617.9 kPa | 976
8643.4 kPa | 976.1
8668.9 kPa | 976.1
8700 kPa | 976.2
8725.8 kPa | 976.1
8751.7 kPa | 976.1
8777.7 kPa | 976.2
8810 kPa | 976.2
8838.3 kPa | 976.2
8865.8 kPa | 976.3
8892.5 kPa | 976.1
8925.3 kPa | 976.3
8952.3 kPa | 976.3
8979 kPa | 976.3
9006.6 kPa | 976.4
9039.6 kPa | 976.3
9067.1 kPa | 976.3
9100.6 kPa | 976.4
9129 kPa | 976.4
9157.8 kPa | 976.5
9191.8 kPa | 976.5
9221.4 kPa | 976.5
9250.2 kPa | 976.4
9279.1 kPa | 976.4
9315 kPa | 976.4
9344.1 kPa | 976.6
9374.1 kPa | 976.5
9409.9 kPa | 976.5
9439.9 kPa | 976.6
9476.4 kPa | 976.6
9507.3 kPa | 976.7
9537.9 kPa | 976.6
9575 kPa | 976.6
9606.3 kPa | 976.8
9638.6 kPa | 976.8
9670.4 kPa | 976.7
9708.9 kPa | 976.7
9741.1 kPa | 976.9
9780.3 kPa | 976.8
9813.2 kPa | 976.9
9846 kPa | 976.7
9879 kPa | 976.9
9918.8 kPa | 976.9
9952.1 kPa | 976.9
9992 kPa | 977
10026 kPa | 976.8
10061 kPa | 976.9
10103 kPa | 977.1
10139 kPa | 977
10174 kPa | 977
10209 kPa | 977.2
10252 kPa | 977.1
10288 kPa | 977
10325 kPa | 977.2
10369 kPa | 977.2
10405 kPa | 977.1
10449 kPa | 977.2
10486 kPa | 977.2
10525 kPa | 977.2
10571 kPa | 977.3
10610 kPa | 977.3
10649 kPa | 977.3
10688 kPa | 977.4
10736 kPa | 977.4
10775 kPa | 977.3
10823 kPa | 977.4
10864 kPa | 977.4
10906 kPa | 977.6
10949 kPa | 977.4
11001 kPa | 977.6
11045 kPa | 977.5
11086 kPa | 977.5
11124 kPa | 977.6
11150 kPa | 977.6
11180 kPa | 977.6
11206 kPa | 977.7
11232 kPa | 977.6
11290 kPa | 977.6
11316 kPa | 977.6
11343 kPa | 977.8
11375 kPa | 977.6
11402 kPa | 977.7
11490 kPa | 977.7
11519 kPa | 977.9
11574 kPa | 977.9
11609 kPa | 978
11637 kPa | 977.8
11668 kPa | 977.9
11691 kPa | 977.8
11715 kPa | 977.9
11767 kPa | 978.1
11791 kPa | 978
11816 kPa | 978
11847 kPa | 978
11871 kPa | 977.9
11896 kPa | 978.1
11920 kPa | 978.1
11950 kPa | 978
11975 kPa | 978.1
12000 kPa | 978.2
12031 kPa | 978.2
12057 kPa | 978
12083 kPa | 978.2
12110 kPa | 978.1
12130 kPa | 978.2
12151 kPa | 978.2
12176 kPa | 978.3
12197 kPa | 978.3
12218 kPa | 978.2
12240 kPa | 978.3
12266 kPa | 978.3
12285 kPa | 978.3
12300 kPa | 978.3
12304 kPa | 978.3
12305 kPa | 978.4
12331 kPa | 978.3
12497 kPa | 978.4
12525 kPa | 978.5
12546 kPa | 978.5
12565 kPa | 978.5
12583 kPa | 978.5
12606 kPa | 978.4
12624 kPa | 978.5
12646 kPa | 978.5
12665 kPa | 978.5
12684 kPa | 978.4
12707 kPa | 978.5
12725 kPa | 978.6
12748 kPa | 978.5
12768 kPa | 978.7
12787 kPa | 978.5
12806 kPa | 978.5
12829 kPa | 978.6
12849 kPa | 978.6
12868 kPa | 978.8
12887 kPa | 978.6
12911 kPa | 978.6
12930 kPa | 978.7
12950 kPa | 978.7
12974 kPa | 978.7
12993 kPa | 978.7
13017 kPa | 978.8
13037 kPa | 978.7
13057 kPa | 978.8
13081 kPa | 978.8
13101 kPa | 978.8
13145 kPa | 978.7
13166 kPa | 978.8
13186 kPa | 978.9
13211 kPa | 978.9
13231 kPa | 978.9
13252 kPa | 978.8
13277 kPa | 978.9
13298 kPa | 978.9
13319 kPa | 978.9
13340 kPa | 978.9
13366 kPa | 979
13387 kPa | 978.9
13408 kPa | 978.9
13429 kPa | 979.1
13454 kPa | 979
13476 kPa | 979
13501 kPa | 979
13523 kPa | 979.1
13544 kPa | 979.1
13592 kPa | 979
13615 kPa | 979
13637 kPa | 979.1
13660 kPa | 979.1
13686 kPa | 979.2
13708 kPa | 979.1
13730 kPa | 979.1
13757 kPa | 979.1
13779 kPa | 979.3
13802 kPa | 979.2
13828 kPa | 979.3
13851 kPa | 979.2
13949 kPa | 979.3
13996 kPa | 979.4
14023 kPa | 979.3
14047 kPa | 979.3
14070 kPa | 979.5
14098 kPa | 979.3
14121 kPa | 979.4
14145 kPa | 979.5
14174 kPa | 979.4
14198 kPa | 979.4
14247 kPa | 979.4
14276 kPa | 979.4
14300 kPa | 979.4
14353 kPa | 979.5
14378 kPa | 979.5
14402 kPa | 979.5
14432 kPa | 979.5
14700 kPa | 979.8
14725 kPa | 979.9
14756 kPa | 979.8
14782 kPa | 979.7
14808 kPa | 979.7
15038 kPa | 979.8
15065 kPa | 980.1
15092 kPa | 980
15119 kPa | 979.9
15152 kPa | 980.1
15207 kPa | 980
15241 kPa | 980
15297 kPa | 980
15386 kPa | 980.1
15420 kPa | 980.1
15448 kPa | 980.2
15477 kPa | 980.2
15539 kPa | 980.1
15568 kPa | 980.2
15602 kPa | 980.2
